Drawing on patent US11377469B2, “CD73 inhibitors” (ORIC Pharmaceuticals, Inc., priority 2017, dated 2022), this text covers IC50 for 19 compounds.

CD73, sequence (P21589 27-574): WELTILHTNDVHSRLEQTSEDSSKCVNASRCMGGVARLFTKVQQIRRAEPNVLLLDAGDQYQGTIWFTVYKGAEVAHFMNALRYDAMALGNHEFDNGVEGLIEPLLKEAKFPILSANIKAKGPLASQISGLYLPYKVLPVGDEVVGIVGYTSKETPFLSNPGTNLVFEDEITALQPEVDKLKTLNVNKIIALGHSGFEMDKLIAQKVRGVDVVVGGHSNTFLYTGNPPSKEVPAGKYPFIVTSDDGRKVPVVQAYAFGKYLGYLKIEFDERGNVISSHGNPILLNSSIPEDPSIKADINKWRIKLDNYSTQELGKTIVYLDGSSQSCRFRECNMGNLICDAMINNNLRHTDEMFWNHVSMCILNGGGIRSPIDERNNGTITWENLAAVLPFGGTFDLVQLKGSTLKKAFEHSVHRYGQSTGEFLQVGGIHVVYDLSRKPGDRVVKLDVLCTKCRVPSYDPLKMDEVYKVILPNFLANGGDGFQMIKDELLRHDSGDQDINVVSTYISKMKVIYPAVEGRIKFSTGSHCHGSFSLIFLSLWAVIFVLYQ

For the test, the target named is CD73 (Homo sapiens (Human), UniProt P21589). Description: Biochemical Assay (CD73 inhibition, AMP hydrolysis, Malachite Green readout). The note with it: CD73 0.3208 nM, AMP 15 μM, Tris-HCl pH 7.4, Malachite Green absorbance. The protocol:
Example A1: Biochemical Assay
Assay Reaction Conditions
• Assay Volume: 70 μl • Reaction Volume: 50 μl • CD73: 0.3208 nM • AMP: 15 μM • Assay Buffer: 2 5 mM Tris-HCL, pH 7.4, 0.01% Brij-35, 0.01% BSA, 5 mM MgCl2 Assay Procedure:
Made dose titration of testing compounds in assay buffer, 10 points ½ log titrations in duplicates starting at 100 μM.
Added 25 μl of CD73 to each well for a final concentration of 320 pM.
Incubated at RT for 15 min.
Added 25 μl of AMP to each well for a final concentration of 15 μM.
Incubated at RT for 10 min.
Added 10 μl of Malachite Green Reagent A, incubate at RT for 10 min.
Added 10 μl of Malachite Green Reagent B, incubate at RT for 45 min. […]
The ability of the compounds disclosed herein to inhibit CD73 activity was quantified and the respective IC50 values were determined. Table 1 provides the biochemical IC50 values of compounds disclosed herein.
`Cc1cc2c(NCC3CC3)nc(Cl)nc2n1[C@@H]1O[C@H](COCP(=O)(O)O)[C@@H](O)[C@H]1O` [Example 97, ((((2R,3S,4R,5R)-5-(2-chloro-4-((cyclopropylmethyl)amino)-6-methyl-7H-pyrrolo[2,3-d]pyrimidin-7-yl)-3,4-dihydroxytetrahydrofuran-2-yl)methoxy)methyl)phosphonic acid] had an IC50 greater than 1 µM.

In the case of `CNc1nc(NCc2cccc(Cl)c2)c2cnn([C@@H]3O[C@H](COCP(=O)(O)O)[C@@H](O)[C@H]3O)c2n1` [Example 56, ((((2R,3S,4R,5R)-5-(4-((3-chlorobenzyl)amino)-6-(methylamino)-1H-pyrazolo[3,4-d]pyrimidin-1-yl)-3,4-dihydroxytetrahydrofuran-2-yl)methoxy)methyl)phosphonic acid], the IC50 was greater than 1 µM.

As for `Cn1ncc2cccc(CNc3nc(Cl)nc4c3cnn4[C@@H]3O[C@H](COCP(=O)(O)O)[C@@H](O)[C@H]3O)c21` [Example 48, ((((2R,3S,4R,5R)-5-(6-chloro-4-(((1-methyl-1H-indazol-7-yl)methyl)amino)-1H-pyrazolo[3,4-d]pyrimidin-1-yl)-3,4-dihydroxytetrahydrofuran-2-yl)methoxy)methyl)phosphonic acid], the IC50 was no more than 0.5 µM.

For `O=P(O)(O)CS(=O)(=O)NC[C@H]1O[C@@H](n2ncc3c(NCc4ccccc4Cl)nc(Cl)nc32)[C@H](O)[C@@H]1O` [Example 3, ((N-(((2R,3S,4R,5R)-5-(6-Chloro-4-((2-chlorobenzyl)amino)-1H-pyrazolo[3,4-d]pyrimidin-1-yl)-3,4-dihydroxytetrahydrofuran-2-yl)methyl)sulfamoyl)methyl)phosphonic acid], the IC50 was no more than 0.5 µM.

Compound `O=C(CP(=O)(O)O)OC[C@H]1O[C@@H](n2ncc3c(NCc4ccccc4Cl)nc(Cl)nc32)[C@H](O)[C@@H]1O` [Example 1, (2-(((2R,3S,4R,5R)-5-(6-Chloro-4-((2-chlorobenzyl)amino)-1H-pyrazolo[3,4-d]pyrimidin-1-yl)-3,4-dihydroxytetrahydrofuran-2-yl)methoxy)-2-oxoethyl)phosphonic acid] showed an IC50 of no more than 0.5 µM.

Turning to `O=P(O)(O)COC[C@H]1O[C@@H](n2ncc3c(NC4CC(F)(F)C4)nc(Cl)nc32)[C@H](O)[C@@H]1O` [Example 87, ((((2R,3S,4R,5R)-5-(6-chloro-4-((3,3-difluorocyclobutyl)amino)-1H-pyrazolo[3,4-d]pyrimidin-1-yl)-3,4-dihydroxytetrahydrofuran-2-yl)methoxy)methyl)phosphonic acid], the IC50 was no more than 0.5 µM.

Compound `C[C@@H]1CCC[C@@H]1Nc1nc(Cl)nc2c1cnn2[C@@H]1O[C@H](CS(=O)(=O)CP(=O)(O)O)[C@@H](O)[C@H]1O` [Example 135, (((((2S,3S,4R,5R)-5-(6-chloro-4-(((1S,2R)-2-methylcyclopentyl)amino)-1H-pyrazolo[3,4-d]pyrimidin-1-yl)-3,4-dihydroxytetrahydrofuran-2-yl)methyl)sulfonyl)methyl)phosphonic acid] registered an IC50 of no more than 0.5 µM.

`CC(C)CNc1nc(Cl)nc2c1cnn2[C@@H]1O[C@H](COCP(=O)(O)O)[C@@H](O)[C@H]1O` [Example 63, ((((2R,3S,4R,5R)-5-(6-chloro-4-(isobutylamino)-1H-pyrazolo[3,4-d]pyrimidin-1-yl)-3,4-dihydroxytetrahydrofuran-2-yl)methoxy)methyl)phosphonic acid] showed an IC50 of no more than 0.5 µM.

With `O=P(O)(O)COC[C@H]1O[C@@H](n2ncc3c(N[C@@H]4CCOC4)nc(Cl)nc32)[C@H](O)[C@@H]1O` [Example 80, ((((2R,3S,4R,5R)-5-(6-chloro-4-(((R)-tetrahydrofuran-3-yl)amino)-1H-pyrazolo[3,4-d]pyrimidin-1-yl)-3,4-dihydroxytetrahydrofuran-2-yl)methoxy)methyl)phosphonic acid], the IC50 is no more than 0.5 µM.

`C[C@@H](c1cccc(Cl)c1)N(C)c1nc(Cl)nc2c1cnn2[C@@H]1O[C@H](COCP(=O)(O)O)[C@@H](O)[C@H]1O` [Example 36] displayed an IC50 greater than 1 µM.

In turn, `CN(Cc1cccc(Cl)c1)c1nc(Cl)nc2c1nnn2[C@@H]1O[C@H](COCP(=O)(O)O)[C@@H](O)[C@H]1O` [Example 39, ((((2R,3S,4R,5R)-5-(5-chloro-7-((3-chlorobenzyl)(methyl)amino)-3H-[1,2,3]triazolo[4,5-d]pyrimidin-3-yl)-3,4-dihydroxytetrahydrofuran-2-yl)methoxy)methyl)phosphonic acid] yielded an IC50 of no more than 0.5 µM.

`O=P(O)(O)COC[C@H]1O[C@@H](n2ncc3c(N4CCOCC4)nc(Cl)nc32)[C@H](O)[C@@H]1O` [Example 42, ((((2R,3S,4R,5R)-5-(6-chloro-4-morpholino-1H-pyrazolo[3,4-d]pyrimidin-1-yl)-3,4-dihydroxytetrahydrofuran-2-yl)methoxy)methyl)phosphonic acid] showed an IC50 of no more than 0.5 µM.

Compound `O=P(O)(O)COC[C@H]1O[C@@H](n2ncc3c(NCc4cccc(Cl)c4F)nc(Cl)nc32)[C@H](O)[C@@H]1O` [Example 58, ((((2R,3S,4R,5R)-5-(6-chloro-4-((3-chloro-2-fluorobenzyl)amino)-1H-pyrazolo[3,4-d]pyrimidin-1-yl)-3,4-dihydroxytetrahydrofuran-2-yl)methoxy)methyl)phosphonic acid] came in with an IC50 of no more than 0.5 µM.

Turning to `O=P(O)(O)COC[C@H]1O[C@@H](n2ccc3c(NCc4ccccc4Cl)nc(Cl)nc32)[C@H](O)[C@@H]1O` [Example 40, ((((2R,3S,4R,5R)-5-(2-chloro-4-((2-chlorobenzyl)amino)-7H-pyrrolo[2,3-d]pyrimidin-7-yl)-3,4-dihydroxytetrahydrofuran-2-yl)methoxy)methyl)phosphonic acid], the IC50 was no more than 0.5 µM.

On to `CN(Cc1ccccc1)c1nc(Cl)nc2c1cnn2[C@@H]1O[C@H](COCP(=O)(O)O)[C@@H](O)[C@H]1O` [Example 7, ((((2R,3S,4R,5R)-5-(4-(Benzyl(methyl)amino)-6-chloro-1H-pyrazolo[3,4-d]pyrimidin-1-yl)-3,4-dihydroxytetrahydrofuran-2-yl)methoxy)methyl)phosphonic acid], for which the IC50 is no more than 0.5 µM.

`O=P(O)(O)COC[C@H]1O[C@@H](n2ncc3c(NCC4CC(F)(F)C4)nc(Cl)nc32)[C@H](O)[C@@H]1O` [Example 86]: the IC50 was no more than 0.5 µM.

The compound `O=P(O)(O)CS(=O)(=O)C[C@H]1O[C@@H](n2cnc3c(NC4CCCC4)nc(Cl)nc32)[C@H](O)[C@@H]1O` [Example 112, (((((2S,3S,4R,5R)-5-(2-chloro-6-(cyclopentylamino)-9H-purin-9-yl)-3,4-dihydroxytetrahydrofuran-2-yl)methyl)sulfonyl)methyl)phosphonic acid] gave an IC50 of no more than 0.5 µM.

As to `O=P(O)(O)COC[C@H]1O[C@@H](n2ncc3c(N4CCCC4)nc(Cl)nc32)[C@H](O)[C@@H]1O` [Example 81, ((((2R,3S,4R,5R)-5-(6-chloro-4-(pyrrolidin-1-yl)-1H-pyrazolo[3,4-d]pyrimidin-1-yl)-3,4-dihydroxytetrahydrofuran-2-yl)methoxy)methyl)phosphonic acid], the IC50 was no more than 0.5 µM.

`C[C@@H]1CCC[C@@H]1Nc1nc(Cl)nc2c1cnn2[C@@H]1O[C@H](COCP(=O)(O)O)[C@@H](O)[C@H]1O` [Example 104, ((((2R,3S,4R,5R)-5-(6-chloro-4-(((1S,2R)-2-methylcyclopentyl)amino)-1H-pyrazolo[3,4-d]pyrimidin-1-yl)-3,4-dihydroxytetrahydrofuran-2-yl)methoxy)methyl)phosphonic acid] showed an IC50 of no more than 0.5 µM.
